The test concerns thromboxane B2 (TXB2) formation. The experiment in a line: Percent inhibition against thromboxane B2 (TXB2) formation in collagen-stimulated PRP from mice after oral administration (RIA). Type of test: in vivo, ddY male mouse. The settings on record: Mus musculus, blood collected 1 hour later, 12.5 μg/ml collagen, TXB2 5 minutes later; for inhibition at 30 mg/kg: 30 mg/kg oral; for inhibition at 100 mg/kg: 100 mg/kg oral. The protocol:
Using a ddY male mouse having a body weight of 35-40 g, one of the representative compounds of this invention was administered orally. One hour later, citrated blood was collected. PRP (platelet-rich plasma) was separated. Aggregation of platelets by the addition of 12.5 μg/ml of collagen was observed by an aggregometer. The amount of thromboxane B2 (a stable metabolite of thromboxane A2) formed 5 minutes later in the liquid reaction mixture was measured by the RIA method. Results are shown in Table 1, in terms of percent inhibition against the formation of thromboxane B2 (TXB2).

The structures appear in SMILES notation.

Broadly, the inhibition is the drop in the measured response relative to a control, in per cent. Read a low inhibition as little suppression. Molecule `CCOC(=O)C1=C(C)NC(C)=C(C(=O)OCCOC(=O)c2ccc(OCCn3ccnc3)cc2)C1c1cccc([N+](=O)[O-])c1` (stereo not shown) [Ex. 2, 3-Ethyl 5-[2-[4-[2-(1-imidazolyl)-ethoxy]-benzoyloxy]-ethyl]2,6-dimethyl-4-(3-nitrophenyl)-1,4-dihydropyridine-3,5-dicarboxylate] yielded an inhibition at 30 mg/kg of 42% and an inhibition at 100 mg/kg of 72%.
For `COC(=O)C1=C(C)NC(C)=C(C(=O)OCCOC(=O)C=Cc2ccc(Cn3ccnc3)cc2)C1c1ccccc1F` (stereo not shown) [Ex. 14, 3-Methyl 5-[2-[3-[4-(1-imidazolylmethyl)phenyl]acryloyloxy]ethyl]2,6-dimethyl-4-(2-fluorophenyl)-1,4-dihydropyridine-3,5-dicarboxylate], in that order: 52% and 83%.
The molecule `COC(=O)C1=C(C)NC(C)=C(C(=O)OCCOC(=O)C=Cc2ccc(Cn3ccnc3)cc2)C1c1cccc([N+](=O)[O-])c1` (stereo not shown) [Ex. 8, 3-Methyl 5-[2-[3-[4-(1-imidazolylmethyl)-phenyl]acryloyloxy]ethyl]2,6-dimethyl-4-(3-nitrophenyl)-1,4-dihydropyridine-3,5-dicarboxylate] showed an inhibition at 30 mg/kg of 60% and an inhibition at 100 mg/kg of 72%.
In the same order, the values of `CCOC(=O)C1=C(C)NC(C)=C(C(=O)OCCCOC(=O)c2ccc(OCCn3ccnc3)cc2)C1c1cccc([N+](=O)[O-])c1` (stereo not shown) [Ex. 6, 3-Ethyl 5-[3-[4-[2-(1-imidazolyl)ethoxyl]benzoyloxy]propyl]2,6-dimethyl-4-(3-nitrophenyl)-1,4-dihydropyridine-3,5-dicarboxylate] are 74% and 95%.
The molecule `COC(=O)C1=C(C)NC(C)=C(C(=O)OCCOC(=O)c2ccc(OCCn3ccnc3)cc2)C1c1cccc(Cl)c1Cl` (stereo not shown) [Ex. 16, 3-Methyl 5-[2-[4-[2-(1-imidazolyl)ethoxy]-benzoyloxy]ethyl]2,6-dimethyl-4-(2,3-dichlorophenyl)-1,4-dihydropyridine-3,5-dicarboxylate] displayed an inhibition at 30 mg/kg of 75% and an inhibition at 100 mg/kg of 94%.

For the origin of these results see patent US4737506A, “Anti-arteriosclerotic pyridyl or imidazolyl derivatives of carbonyloxyalkyl hantzsch esters” (Kowa Co., Ltd., priority 1984, dated 1988).
